Bounds are passed on as bounds.

Experiment [1] addresses T1, recombinant human ALK5 (TGF-βR1) protein (Homo sapiens, UniProt P36897).
T1 construct: purchased Life Technologies PR9075A
T1 sequence (P36897 34-503): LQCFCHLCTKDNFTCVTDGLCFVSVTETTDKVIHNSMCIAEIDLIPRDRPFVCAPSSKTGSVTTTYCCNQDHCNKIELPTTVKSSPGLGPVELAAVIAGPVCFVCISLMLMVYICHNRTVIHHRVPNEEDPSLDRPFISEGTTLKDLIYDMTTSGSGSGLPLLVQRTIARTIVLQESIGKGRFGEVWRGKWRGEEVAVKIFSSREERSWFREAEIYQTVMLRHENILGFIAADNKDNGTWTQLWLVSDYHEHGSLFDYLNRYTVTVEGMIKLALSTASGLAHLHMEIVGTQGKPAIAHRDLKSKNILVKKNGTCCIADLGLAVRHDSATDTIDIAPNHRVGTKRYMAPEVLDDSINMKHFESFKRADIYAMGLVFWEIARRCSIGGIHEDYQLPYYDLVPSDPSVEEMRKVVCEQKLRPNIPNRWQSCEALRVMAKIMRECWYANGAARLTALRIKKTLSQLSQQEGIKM
Kind of experiment: Biochemical ALK5 (TGF-βR1) assay to measure pKi (LANCE Ultra ULight kinase assay). Particulars: apparent pKi from pIC50 by Cheng-Prusoff, read-out: ALK5 pKi (converted). The gist of the method:
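Dose range 10 μM–25 pM; enzyme + compound 60 min RT; ATP added (5× stock 125 μM, 2 mM DTT); 60 min 37 °C; stop with EDTA + Eu anti-phospho-Topo IIα Thr1342 Ab; TR-FRET ex 320/340, em 665 nm. 4-param pIC50 → pKi (Cheng-Prusoff).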

Experiment [2] has as its system TGF-β-stimulated SMAD3 phosphorylation in BEAS-2B cells. Kind of experiment: Cellular ALK5 potency assay, inhibition of TGF-β stimulated pSMAD3 formation in BEAS-2B cells. In kind it is cell-based. Particulars: Homo sapiens; inhibition of TGF-β stimulated pSMAD3 formation, BEAS-2B cells; read-out: BEAS2B pIC50 (converted). The essentials:
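pSMAD3 was quantified by AlphaLISA in BEAS-2B lysates after 10 ng/mL TGF-β (final) for 30 min. Before stimulation, cells received compound for 1 h at 37° C in supplemented HBSS. Values are pIC50, relative to TGF-β-stimulated cells without compound.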

Take `COC(=O)N1CCc2nnc(-c3cnc4ccc(-c5c[nH]nc5-c5cccc(C)n5)nc4c3)cc2C1` [Compound 613, methyl 3-[6-[3-(6-methyl-2-pyridyl)-1H-pyrazol-4-yl]-1,5-naphthyridin-3-yl]-7,8-dihydro-5H-pyrido[4,3-c]pyridazine-6-carboxylate]: the Ki in experiment [1] is 0.0398 to 0.316 nM. Besides, in experiment [2], the IC50 is 25.1 to 158 nM.
The corresponding values for `Cc1cccc(-c2[nH]cnc2-c2ccc3ncc(-c4nc(C(=O)OC5CNC5)cs4)cc3c2)n1` [Compound 745, azetidin-3-yl 2-[6-[5-(6-methyl-2-pyridyl)-1H-imidazol-4-yl]-3-quinolyl]thiazole-4-carboxylate] are 0.0398 to 0.316 nM and 25.1 to 158 nM.
For `CNCc1c(-c2cn[nH]c2)cnc2ccc(-c3c[nH]nc3-c3cccc(C)n3)cc12` [Compound 471, N-methyl-1-[6-[3-(6-methyl-2-pyridyl)-1H-pyrazol-4-yl]-3-(1H-pyrazol-4-yl)-4-quinolyl]methanamine], in that order: 0.0398 to 0.316 nM and 25.1 to 158 nM.
The corresponding values for `Cc1cccc(-c2[nH]cnc2-c2ccc3ncc(NCCN4CC5CNC5C4)cc3c2)n1` (stereo not shown) [Compound 129, N-[2-(3,6-diazabicyclo[3.2.0]heptan-3-yl)ethyl]-6-[5-(6-methyl-2-pyridyl)-1H-imidazol-4-yl]quinolin-3-amine] are 0.0398 to 0.316 nM and 200 to 1260 nM.
For the compound `Cc1cccc(-c2[nH]ncc2-c2ccc3nccc(C(=O)OC[C@H]4CCCN4)c3c2)n1` [Compound 1223, [(2R)-pyrrolidin-2-yl]methyl 6-[5-(6-methyl-2-pyridyl)-1H-pyrazol-4-yl]quinoline-4-carboxylate], the Ki in experiment [1] is 3.98 to 31.6 nM. Further, the IC50 in experiment [2] is 25.1 to 158 nM.
The corresponding values for `Cc1cccc(-c2n[nH]cc2-c2ccc3ncc(-c4coc(CCN5CCNCC5)n4)cc3n2)n1` [Compound 697, 4-[6-[3-(6-methyl-2-pyridyl)-1H-pyrazol-4-yl]-1,5-naphthyridin-3-yl]-2-(2-piperazin-1-ylethyl)oxazole] are 0.0398 to 0.316 nM and 200 to 1260 nM.
In the case of `Cc1cccc(-c2[nH]ncc2-c2ccc3ncc(C(=O)OC[C@H]4CCCNC4)cc3c2)n1` [Compound 1230, [(3S)-3-piperidyl]methyl 6-[5-(6-methyl-2-pyridyl)-1H-pyrazol-4-yl]quinoline-3-carboxylate], the Ki in experiment [1] was 0.0398 to 0.316 nM. In addition, in experiment [2], the IC50 is 25.1 to 158 nM.
In the case of `Cc1cccc(-c2n[nH]cc2-c2ccc3ncc(N4CCC5(CCNC5)C4)cc3n2)n1` (stereo not shown) [Compound 10, 7-(2,7-diazaspiro[4.4]nonan-2-yl)-2-[3-(6-methyl-2-pyridyl)-1H-pyrazol-4-yl]-1,5-naphthyridine], in experiment [1], the Ki is 0.0398 to 0.316 nM. For the same compound, the IC50 in experiment [2] was 200 to 1260 nM.
Consider `Cc1cccc(-c2[nH]cnc2-c2ccc3ncc(-c4ccc(C(=O)OC5CNC5)cc4)cc3c2)n1` [Compound 663, azetidin-3-yl 4-[6-[5-(6-methyl-2-pyridyl)-1H-imidazol-4-yl]-3-quinolyl]benzoate], for which, in experiment [1], the Ki is 0.0398 to 0.316 nM. Further, the IC50 in experiment [2] is 25.1 to 158 nM.
As to `Cc1cccc(-c2n[nH]cc2-c2ccc3nccc(N(C)CCN4CCOCC4)c3n2)n1` [Compound 831, N-methyl-6-[3-(6-methyl-2-pyridyl)-1H-pyrazol-4-yl]-N-(2-morpholinoethyl)-1,5-naphthyridin-4-amine], the Ki in experiment [1] is 0.0398 to 0.316 nM. Further, in experiment [2], the IC50 was 200 to 1260 nM.
For `FC(F)(F)c1cccc(-c2n[nH]cc2-c2ccc3ncc(N4CCCNCC4)cc3n2)n1` [Compound 383, 7-(1,4-diazepan-1-yl)-2-[3-[6-(trifluoromethyl)-2-pyridyl]-1H-pyrazol-4-yl]-1,5-naphthyridine], the Ki in experiment [1] was 0.398 to 3.16 nM. Moreover, the IC50 in experiment [2] was 200 to 1260 nM.
The corresponding values for `Cc1nc(-c2nc3ccccn3c2-c2ccc3ncc(N4CCNCC4)cc3c2)ccc1F` [Compound 457, 6-[2-(5-fluoro-6-methyl-2-pyridyl)imidazo[1,2-a]pyridin-3-yl]-3-piperazin-1-yl-quinoline] are 0.0398 to 0.316 nM and 25.1 to 158 nM.
The corresponding values for `Cc1cccc(-c2[nH]cnc2-c2ccc3ncc(-c4ccc(C(=O)OCCNC5CNC5)cn4)cc3c2)n1` [Compound 1192, 2-(azetidin-3-ylamino)ethyl 6-[6-[5-(6-methyl-2-pyridyl)-1H-imidazol-4-yl]-3-quinolyl]pyridine-3-carboxylate] are 0.0398 to 0.316 nM and 200 to 1260 nM.
The corresponding values for `COc1ncccc1-c1cnc2ccc(-c3c[nH]nc3-c3cccc(C)n3)nc2c1` [Compound 61, 7-(2-methoxy-3-pyridyl)-2-[3-(6-methyl-2-pyridyl)-1H-pyrazol-4-yl]-1,5-naphthyridine] are 0.0398 to 0.316 nM and 25.1 to 158 nM.
Consider `Cc1cccc(-c2n[nH]cc2-c2ccc3ncc(N4CCC5(CCN(C(=O)OCc6ccccc6)C5)C4)cc3n2)n1` (stereo not shown) [Compound 124, benzyl 7-[6-[3-(6-methyl-2-pyridyl)-1H-pyrazol-4-yl]-1,5-naphthyridin-3-yl]-2,7-diazaspiro[4.4]nonane-2-carboxylate], for which the Ki in experiment [1] is 0.0398 to 0.316 nM. In addition, the IC50 in experiment [2] is 25.1 to 158 nM.
For `Cc1cccc(-c2n[nH]cc2-c2ccc3ncc(-c4ccc(N)nc4)cc3n2)n1` [Compound 562, 5-[6-[3-(6-methyl-2-pyridyl)-1H-pyrazol-4-yl]-1,5-naphthyridin-3-yl]pyridin-2-amine], in that order: less than 0.0316 nM and less than 20 nM.
Turning to `Cc1cccc(-c2[nH]cnc2-c2ccc3ncc(C(=O)O[C@@H]4CCCNC4)cc3c2)n1` [Compound 781, [(3R)-3-piperidyl] 6-[5-(6-methyl-2-pyridyl)-1H-imidazol-4-yl]quinoline-3-carboxylate], the Ki in experiment [1] was 0.398 to 3.16 nM. In addition, in experiment [2], the IC50 is 25.1 to 158 nM.
The corresponding values for `COC(=O)c1cnc2ccc(-c3cn[nH]c3-c3cccc(C)n3)nc2c1` [Compound 53, methyl 6-[5-(6-methyl-2-pyridyl)-1H-pyrazol-4-yl]-1,5-naphthyridine-3-carboxylate] are 0.0398 to 0.316 nM and 25.1 to 158 nM.
As for `Cc1nc(-c2n[nH]cc2-c2ccc3ncc(-c4[nH]nc5c4CCNC5)cc3n2)ccc1F` [Compound 7, 2-[3-(5-fluoro-6-methyl-2-pyridyl)-1H-pyrazol-4-yl]-7-(4,5,6,7-tetrahydro-2H-pyrazolo[3,4-c]pyridin-3-yl)-1,5-naphthyridine], in experiment [1], the Ki is 0.0398 to 0.316 nM. The IC50 in experiment [2] was 200 to 1260 nM.
Turning to `Cc1cccc(-c2[nH]cnc2-c2ccc3ncc(NCCN4CCCC4)cc3c2)n1` [Compound 30, 6-[5-(6-methyl-2-pyridyl)-1H-imidazol-4-yl]-N-(2-pyrrolidin-1-ylethyl)quinolin-3-amine], the Ki in experiment [1] is 0.0398 to 0.316 nM. For the same compound, in experiment [2], the IC50 was 25.1 to 158 nM.
Consider `COC(=O)CC1CN(CCNc2cnc3ccc(-c4nc[nH]c4-c4cccc(C)n4)cc3c2)CCN1` (stereo not shown) [Compound 322, methyl 2-[4-[2-[[6-[5-(6-methyl-2-pyridyl)-1H-imidazol-4-yl]-3-quinolyl]amino]ethyl]piperazin-2-yl]acetate], for which, in experiment [1], the Ki is 0.0398 to 0.316 nM. For the same compound, the IC50 in experiment [2] was 200 to 1260 nM.
For `Cc1nc(-c2[nH]cnc2-c2ccc3ncc(NCCN4CCCC4)cc3n2)ccc1F` [Compound 568, 6-[5-(5-fluoro-6-methyl-2-pyridyl)-1H-imidazol-4-yl]-N-(2-pyrrolidin-1-ylethyl)-1,5-naphthyridin-3-amine], in that order: 0.0398 to 0.316 nM and 25.1 to 158 nM.
Turning to `Cc1cccc(-c2[nH]cnc2-c2ccc3ncc(-c4cccc(C(=O)O[C@H]5CCNC5)c4)cc3c2)n1` [Compound 707, [(3S)-pyrrolidin-3-yl] 3-[6-[5-(6-methyl-2-pyridyl)-1H-imidazol-4-yl]-3-quinolyl]benzoate], the Ki in experiment [1] is 0.0398 to 0.316 nM. Further, the IC50 in experiment [2] was 25.1 to 158 nM.
Take `Cc1nc(-c2n[nH]cc2-c2ccc3ncc(N4CCC(N)C4)cc3n2)ccc1F` (stereo not shown) [Compound 334, 1-[6-[3-(5-fluoro-6-methyl-2-pyridyl)-1H-pyrazol-4-yl]-1,5-naphthyridin-3-yl]pyrrolidin-3-amine]: in experiment [1], the Ki is 0.0398 to 0.316 nM. In experiment [2], the IC50 is 25.1 to 158 nM.
`Cc1cccc(-c2[nH]nnc2-c2ccc3ncc(NCCN4CCN(C(C)C)CC4)cc3c2)n1` [Compound 621, N-(2-(4-isopropylpiperazin-1-yl)ethyl)-6-(5-(6-methylpyridin-2-yl)-1H-1,2,3-triazol-4-yl)quinolin-3-amine]: the Ki in experiment [1] is 0.0398 to 0.316 nM. For the same compound, the IC50 in experiment [2] was 25.1 to 158 nM.
For the compound `Cc1cccc(-c2n[nH]cc2-c2ccc3ncc(N4CCC(N5CCN(C)CC5)CC4)cc3n2)n1` [Compound 205, 7-[4-(4-methylpiperazin-1-yl)-1-piperidyl]-2-[3-(6-methyl-2-pyridyl)-1H-pyrazol-4-yl]-1,5-naphthyridine], the Ki in experiment [1] was 0.0398 to 0.316 nM. Besides, the IC50 in experiment [2] is 25.1 to 158 nM.

Source of the values: US11590116B2 (THERAVANCE BIOPHARMA R&D IP, LLC, priority 2019, dated 2023).
